Values of other authors, collected in patent US20070167440A1, “Novel pyrrolidine compound and a process for preparing the same” (priority 2004, published 2007).

Tested on: gastric motility
Conditions: mice; disclosed in JP1993-17434

Structure (SMILES): COc1cc(N)c(Cl)cc1C(=O)NC1CC(CO)N(C(c2ccccc2)c2ccccc2)C1 (stereo not shown) [4-amino-5-chloro-N-[1-(diphenylmethyl)-5-(hydroxymethyl)-3-pyrrolidinyl]-2-methoxy-benzamide]
- gastric motility: increased gastric motility
